Source: patent US10322110B2, “Imidazole-based antimicrobial agents” (priority 2014, dated 2019)
Values after ≈ are worked out from the molar mass of the structure shown. Read-outs that look alike come from different tables or passages of the source.

How the values were obtained:
Type in all cases: cell-based
[1] = tested on: Staphylococcus aureus MSSA (Newman); assay: broth microdilution MIC assay, Staphylococcus aureus MSSA (Newman); conditions: for MIC: Staphylococcus aureus; for Antibacterial activity Staphylococcus aureus (MSSA): MIC100 class score, broth microdilution
[2] = tested on: penicillin-, erythromycin- and tetracycline-resistant Streptococcus pneumoniae (ATCC 700677), ARSP; assay: microbe, parasite or virus in culture
[3] = tested on: Bacillus subtilis (Marburg strain, ATCC6051); assay: microbe, parasite or virus in culture; conditions: ATCC6051, read-out: Antibacterial activity BS (Bacillus substilis)
[4] = tested on: Human hepatocytes (HepaRG cells); assay: human cytotoxicity assay in vitro (CellTiter-Glo), hepatocytes; conditions: cytotoxicity class
[5] = tested on: Staphylococcus aureus MRSA (COL); assay: broth microdilution MIC assay, Staphylococcus aureus MRSA (COL); conditions: for MIC: Staphylococcus aureus, MRSA
[6] = tested on: Staphylococcus epidermidis (PCI 1200, ATCC12228); assay: broth microdilution MIC assay, Staphylococcus epidermidis; conditions: ATCC12228, read-out: Antibacterial activity SE (Staphylococcus epidermidis)
[7] = tested on: Streptococcus pneumoniae (Chester, ATCC49619); assay: broth microdilution MIC assay, Streptococcus pneumoniae; conditions: MIC100 class score, 24 h
[8] = 24 h, read-out: Antibacterial activity Staphylococcus aureus (MSSA)
[9] = read-out: Antibacterial activity MSSA (Staphylococcus aureus MSSA)
[10] = ATCC700677, MIC activity class, read-out: Antibacterial activity ARSP (multi-drug resistant-SP)
[11] = 24 h, read-out: Antibacterial activity Staphylococcus aureus (MRSA)
[12] = read-out: Antibacterial activity MRSA (Staphylococcus aureus MRSA)

Row | SMILES | MIC [1, 8] [µg/mL] | MIC [1, 9] [µg/mL] | MIC [2, 10] [µg/mL] | MIC [3] [µg/mL] | cytotoxicity cell line H (hepatocytes) [4] | MIC [5, 11] [µg/mL] | MIC [5, 12] [µg/mL] | MIC [6] [µg/mL] | Antibacterial activity Staphylococcus aureus (MSSA) ([1]; 24 h) | Antibacterial activity Staphylococcus aureus (MRSA) ([5]; MIC100 class score, broth microdilution, 24 h) | Antibacterial activity Streptococcus pneumoniae [7] | MIC ([2]; ATCC700677, read-out: Antibacterial activity ARSP (multi-drug resistant-SP)) [µg/mL]
1 | Cc1[nH]c(-c2ccc(-c3cccc(Cl)c3Cl)o2)nc1-c1ccccc1 [Compound 2] | 20 to 50 (≈ 54.2 to 135 µM) | 20 to 50 (≈ 54.2 to 135 µM) | 2 to 5 (≈ 5.42 to 13.5 µM) | 20 to 50 (≈ 54.2 to 135 µM) | 2 | – | – | – | – | – | – | –
2 | Cc1[nH]c(-c2ccc(-c3ccccc3Cl)o2)nc1-c1ccccc1 [Compound 3] | 3 to 10 (≈ 8.96 to 29.9 µM) | 3 to 10 (≈ 8.96 to 29.9 µM) | – | – | 3 | 11 to 201 (≈ 32.9 to 600 µM) | 11 to 201 (≈ 32.9 to 600 µM) | 11 to 201 (≈ 32.9 to 600 µM) | – | – | – | –
3 | Cc1nc(-c2ccc(-c3ccc(Cl)cc3)o2)[nH]c1-c1ccccc1 [Compound 5] | 1 to 3 (≈ 2.99 to 8.96 µM) | 1 to 3 (≈ 2.99 to 8.96 µM) | – | – | 2 | 3 to 10 (≈ 8.96 to 29.9 µM) | 3 to 10 (≈ 8.96 to 29.9 µM) | 3 to 10 (≈ 8.96 to 29.9 µM) | – | – | – | –
4 | Cc1[nH]c(-c2ccc(-c3ccccc3C(F)(F)F)o2)nc1-c1ccccc1 [Compound 17] | 3 to 10 (≈ 8.14 to 27.1 µM) | 3 to 10 (≈ 8.14 to 27.1 µM) | – | 1 to 3 (≈ 2.71 to 8.14 µM) | 3 | 1 to 3 (≈ 2.71 to 8.14 µM) | 1 to 3 (≈ 2.71 to 8.14 µM) | 20 to 50 (≈ 54.3 to 136 µM) | – | – | – | –
5 | Cc1[nH]c(-c2ccc(-c3ccccc3OC(F)(F)F)o2)nc1-c1ccccc1 [Compound 18] | 1 to 3 (≈ 2.6 to 7.81 µM) | 1 to 3 (≈ 2.6 to 7.81 µM) | < 1 | 1 to 3 (≈ 2.6 to 7.81 µM) | 2 | 3 to 10 (≈ 7.81 to 26 µM) | 3 to 10 (≈ 7.81 to 26 µM) | 3 to 10 (≈ 7.81 to 26 µM) | – | – | – | –
6 | Cc1nc(-c2ccc(-c3ccccc3C(F)(F)F)o2)[nH]c1-c1ccccc1Cl [Compound 20] | – | 20 to 50 (≈ 49.7 to 124 µM) | 2 to 5 (≈ 4.97 to 12.4 µM) | 20 to 50 (≈ 49.7 to 124 µM) | 3 | – | – | – | – | – | – | –
7 | Cc1nc(-c2ccc(-c3ccccc3OC(F)(F)F)o2)[nH]c1-c1cccc(Cl)c1 [Compound 21] | – | 1 to 3 (≈ 2.39 to 7.16 µM) | < 1 | 3 to 10 (≈ 7.16 to 23.9 µM) | 3 | – | – | 20 to 50 (≈ 47.8 to 119 µM) | 3 (MIC100 of 3-10 μg/ml) | 3 (MIC100 of 3-10 μg/ml) | – | –
8 | Cc1[nH]c(-c2ccc(-c3ccccc3OC(F)(F)F)o2)nc1-c1ccc(F)cc1 [Compound 23, 4-(4-Fluoro-phenyl)-5-methyl-2-[5-(2-trifluoromethoxy-phenyl)-furan-2-yl]-1H-imidazole] | – | 1 to 3 (≈ 2.49 to 7.46 µM) | < 1 | 1 to 3 (≈ 2.49 to 7.46 µM) | 3 | – | 3 to 10 (≈ 7.46 to 24.9 µM) | 20 to 50 (≈ 49.7 to 124 µM) | 3 (MIC100 of 3-10 μg/ml) | – | – | –
9 | Cc1[nH]c(-c2ccc(-c3ccccc3OC(F)(F)F)o2)nc1-c1ccc(Cl)cc1 [Compound 24] | – | 3 to 10 (≈ 7.16 to 23.9 µM) | < 1 | 3 to 10 (≈ 7.16 to 23.9 µM) | 2 | – | 3 to 10 (≈ 7.16 to 23.9 µM) | 20 to 50 (≈ 47.8 to 119 µM) | 3 (MIC100 of 3-10 μg/ml) | – | – | –
10 | Cc1[nH]c(-c2ccc(-c3ccccc3C(F)(F)F)o2)nc1-c1ccc(Br)cc1 [Compound 25] | – | – | – | 20 to 50 (≈ 44.7 to 112 µM) | – | – | – | – | – | – | 3 (MIC100 of 2-5 μg/ml) | –
11 | Cc1[nH]c(-c2ccc(-c3ccccc3OC(F)(F)F)o2)nc1-c1ccc(C(F)(F)F)cc1 [Compound 26] | – | – | – | – | – | – | – | – | – | – | 3 (MIC100 of 2-5 μg/ml) | 6 to 10 (≈ 13.3 to 22.1 µM)
12 | CCc1ccc(-c2[nH]c(-c3ccc(-c4ccccc4C(F)(F)F)o3)nc2C)cc1 [Compound 28] | – | 20 to 50 (≈ 50.5 to 126 µM) | – | 1 to 3 (≈ 2.52 to 7.57 µM) | – | – | 20 to 50 (≈ 50.5 to 126 µM) | – | – | – | 3 (MIC100 of 2-5 μg/ml) | –
13 | Cc1[nH]c(-c2ccc(-c3ccccc3OC(F)(F)F)o2)nc1Cc1ccc(Br)cc1 [Compound 30, 4-(4-Bromo-benzyl)-5-methyl-2-[5-(2-trifluoromethoxy-phenyl)-furan-2-yl]-1H-imidazole] | – | 3 to 10 (≈ 6.29 to 21 µM) | < 1 | 3 to 10 (≈ 6.29 to 21 µM) | 3 | – | 3 to 10 (≈ 6.29 to 21 µM) | 11 to 201 (≈ 23 to 421 µM) | 3 (MIC100 of 3-10 μg/ml) | – | – | –
14 | Cc1nc(-c2ccc(-c3cc(F)ccc3C(F)(F)F)o2)[nH]c1-c1ccccc1 [Compound 31a] | 20 to 50 (≈ 51.8 to 129 µM) | 20 to 50 (≈ 51.8 to 129 µM) | 2 to 5 (≈ 5.18 to 12.9 µM) | 20 to 50 (≈ 51.8 to 129 µM) | 2 | – | – | – | – | – | – | –
15 | Cc1nc(-c2ccc(-c3ccc(Cl)cc3C(F)(F)F)o2)[nH]c1-c1ccccc1 [Compound 32] | 1 to 3 (≈ 2.48 to 7.45 µM) | 1 to 3 (≈ 2.48 to 7.45 µM) | – | – | 2 | 3 to 10 (≈ 7.45 to 24.8 µM) | 3 to 10 (≈ 7.45 to 24.8 µM) | 3 to 10 (≈ 7.45 to 24.8 µM) | – | – | – | –
